The text below walks through data of patent publication US11518758B2, “Heteroarylaminopyrimidine amide autophagy inhibitors and methods of use thereof” (Deciphera Pharmaceuticals, LLC, priority 2019, dated 2022).

Structures are written as SMILES.

In the assay the target is T1, ULK1 kinase (Homo sapiens, UniProt O75385).
T1 construct: purchased Eurofins 14-959
T1 sequence (O75385 with tags, fused parts or gaps): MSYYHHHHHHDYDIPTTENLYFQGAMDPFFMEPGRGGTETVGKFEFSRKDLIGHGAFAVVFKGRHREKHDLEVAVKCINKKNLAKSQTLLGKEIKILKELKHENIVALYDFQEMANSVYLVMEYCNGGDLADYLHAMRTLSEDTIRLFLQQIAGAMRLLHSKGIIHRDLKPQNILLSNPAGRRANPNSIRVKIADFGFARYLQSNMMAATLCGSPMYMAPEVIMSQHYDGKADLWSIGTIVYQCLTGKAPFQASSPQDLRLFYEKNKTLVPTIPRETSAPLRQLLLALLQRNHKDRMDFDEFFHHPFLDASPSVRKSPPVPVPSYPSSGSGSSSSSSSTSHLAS
Put plainly: Biochemical assay for ULK1.2 (coupled pyruvate kinase/lactate dehydrogenase assay). To be noted: 19 nM ULK1 (Eurofins), myelin basic protein, 1 mM ATP. As for the experimental part: Example 174. Biochemical Assay for ULK1.2
Activity of ULK1 kinase was determined spectroscopically using a coupled pyruvate kinase/lactate dehydrogenase assay that continuously monitors the ATP hydrolysis-dependent oxidation of NADH (e.g., Schindler et al. Science (2000) 289: 1938-1942). Assays were conducted in 384-well plates (100 uL final volume) using 19 nM ULK1 (Eurofins CAT #14-959), 0.25 mg/mL myelin basic protein, 1.5 units pyruvate kinase, 2.1 units lactate dehydrogenase, 1 mM phosphoenol pyruvate, 0.28 mM NADH and 1 mM ATP in assay buffer (100 mM Tris, pH 7.5, 15 mM MgCl2, 0.5 mM DTT, 0.1% octyl-glucoside, 0.002% (w/v) BSA, and 0.002% Triton X-100). Inhibition of ULK1 was measured by adding serial diluted test compound (final assay concentration of 1% DMSO). A decrease in absorption at 340 nm was monitored continuously for 6 hours at 30° C. on a multi-mode microplate reader (BioTek). The reaction rate was calculated using the 2-3 h time frame. The reaction rate at each concentration of compound was converted to percent inhibition using controls (i.e. reaction with no test compound and reaction with a known inhibitor) and IC50 values were calculated by fitting a four-parameter sigmoidal curve to the data using Prism (GraphPad software).
With `Cc1nn(C2CN(CC(C)C)C2)cc1Nc1ncc(Cl)c(NCCCN2CCCC2=O)n1` [Example 161], the IC50 was greater than 500 nM. Next, `Cc1nn(C2CCN(C3CCCC3)CC2)cc1Nc1ncc(C(F)(F)F)c(NCCCN2CCCCCC2=O)n1` [Example 93]: 1 to 25 nM; `Cc1nn([C@@H]2CCNC2)cc1Nc1ncc(C(F)(F)F)c(NCCCN2CCCCC2=O)n1` [Example 34]: 1 to 25 nM; `CCN1CCC(n2cc(Nc3ncc(C(F)(F)F)c(NCCCN4CCCC4=O)n3)c(C)n2)CC1` [Example 82]: 100 to 500 nM. Consider `CC(C)N1CCC(n2cc(Nc3ncc(Cl)c(NCCCN4CCCCC4=O)n3)cn2)CC1` [Example 5], for which the concentration for half-maximal inhibition (IC50) was 25 to 100 nM. Next, `[2H]C([2H])([2H])N1CCC(n2cc(Nc3ncc(Cl)c(NCCCN4CCCCC4=O)n3)c(C)n2)CC1` [Example 57]: 100 to 500 nM; `Cc1nn([C@@H]2CCN(C(C)C)C2)cc1Nc1ncc(C(F)(F)F)c(NCCCN2CCCCC2=O)n1` [Example 36]: 25 to 100 nM. Next, `Cc1nn(CCCN2CCOCC2)cc1Nc1ncc(C(F)(F)F)c(NCCCN2CCCCC2=O)n1` [Example 30]: 100 to 500 nM; `Cc1nn(CCN2CCCCC2)cc1Nc1ncc(C(F)(F)F)c(NCCCN2CCCCC2=O)n1` [Example 22]: 100 to 500 nM. In turn, `CN1CCN(CCCNc2nc(Nc3cnn(C4CCN(C5CC5)CC4)c3)ncc2Cl)C1=O` [Example 148] displayed a half-maximal inhibitory concentration (IC50) of 100 to 500 nM. With `[2H]C([2H])([2H])N1CCC(n2cc(Nc3ncc(Br)c(NCCCN4CCCCC4=O)n3)c(C)n2)CC1` [Example 49] the figure was 1 to 25 nM; with `Cc1nn(CCN2CCOCC2)cc1Nc1ncc(Br)c(NCCCN2CCCCC2=O)n1` [Example 63], greater than 500 nM; with `CCc1nn(C2CCN(C)CC2)cc1Nc1ncc(Cl)c(NCCCN2CCCCC2=O)n1` [Example 55], 100 to 500 nM. With `Cc1nn(CCN2CCCC2)cc1Nc1ncc(Cl)c(NCCCN2CCCC2=O)n1` [Example 162] the figure was greater than 500 nM. With `Cc1nn(C2CCN(CCF)CC2)cc1Nc1ncc(C(F)(F)F)c(NCCCN2CCCCC2=O)n1` [Example 59] the figure was 25 to 100 nM; with `CN1CCC(n2cc(Nc3ncc(C(F)(F)F)c(NCCCN4CCCCC4=O)n3)cn2)CC1` [Example 10], 1 to 25 nM; with `CC(C)CN1CC(n2cc(Nc3ncc(Cl)c(NCCCN4CCCCC4=O)n3)cn2)C1` [Example 11], 100 to 500 nM. As for `Cc1nn(C2CCN(CC3CC3)CC2)cc1Nc1ncc(C(F)(F)F)c(NCCCN2CCCCC2=O)n1` [Example 19], the IC50 was in the range of 1 to 25 nM. With `Cc1nn(C2CCN(C(C)C)CC2)cc1Nc1ncc(Cl)c(NCCCN2CCCCCC2=O)n1` [Example 87] the figure was 25 to 100 nM; with `[2H]C([2H])([2H])N1CCC(n2cc(Nc3ncc(C(F)(F)F)c(NCCCN4CCCCCC4=O)n3)c(C)n2)CC1` [Example 101], 1 to 25 nM. With `Cc1nn([C@@H]2CCN(C)C2)cc1Nc1ncc(Cl)c(NCCCN2CCCCC2=O)n1` [Example 24] the figure was 100 to 500 nM; with `CCc1nn(C2CCN(C(C)C)CC2)cc1Nc1ncc(C(F)(F)F)c(NCCCN2CCCCC2=O)n1` [Example 43], 25 to 100 nM.

Regarding `Cc1nn([C@@H]2CCN(C)C2)cc1Nc1ncc(Cl)c(NCCCN2CCOCCC2=O)n1` [Example 134], the IC50 fell in the range of 100 to 500 nM. With `Cc1nn([C@@H]2CCN(C(C)C)C2)cc1Nc1ncc(C(F)(F)F)c(NCCCN2CCCCCC2=O)n1` [Example 95] the figure was 1 to 25 nM. Next, `Cc1nn(CCCN2CCOCC2)cc1Nc1ncc(C(F)(F)F)c(NCCCN2CCCOCC2=O)n1` [Example 112]: 100 to 500 nM. With `CCc1nn(C2CCN(CC)CC2)cc1Nc1ncc(Cl)c(NCCCN2CCCCC2=O)n1` [Example 46], the IC50 lay in the range of 100 to 500 nM. Next, `Cc1nn(C2CN(CC(C)C)C2)cc1Nc1ncc(Br)c(NCCCN2CCCC2=O)n1` [Example 154]: greater than 500 nM. With `Cc1nn([C@H]2CCNC2)cc1Nc1ncc(C(F)(F)F)c(NCCCN2CCCC2=O)n1` [Example 167] the figure was 100 to 500 nM; with `Cc1nn([C@@H]2CCN(C)C2)cc1Nc1ncc(Cl)c(NCCCN2CCCC2=O)n1` [Example 160], greater than 500 nM. With `CCc1nn(C2CCN(C)CC2)cc1Nc1ncc(C(F)(F)F)c(NCCCN2CCCCC2=O)n1` [Example 47] the figure was 1 to 25 nM; with `Cc1nn([C@@H]2CCNC2)cc1Nc1ncc(C(F)(F)F)c(NCCCN2CCCC2=O)n1` [Example 169], 100 to 500 nM. Molecule `CC(C)N1CCC(n2cc(Nc3ncc(C(F)(F)F)c(NCCCN4CCCCCC4=O)n3)cn2)CC1` [Example 88] had an IC50 of 1 to 25 nM. Next, `CC(C)CN1CC(n2cc(Nc3ncc(C(F)(F)F)c(NCCCN4CCCCCC4=O)n3)cn2)C1` [Example 97]: 1 to 25 nM. With `CC1CCN(CCCNc2nc(Nc3cnn(C4CCN(C5CC5)CC4)c3)ncc2Cl)C1=O` (centres unmarked) [Example 155] the figure was 100 to 500 nM. With `CCc1nn(C2CCN(C(C)C)CC2)cc1Nc1ncc(C(F)(F)F)c(NCCCN2CCCOC2=O)n1` [Example 70] the figure was 25 to 100 nM. Molecule `CC1(C)CCC(=O)N1CCCNc1nc(Nc2cnn(C3CCN(C4CC4)CC3)c2)ncc1Cl` [Example 149] registered an IC50 of 100 to 500 nM. With `CCN1CCC(n2cc(Nc3ncc(Br)c(NCCCN4CCCCC4=O)n3)c(C)n2)CC1` [Example 50] the figure was 25 to 100 nM; with `[2H]C([2H])([2H])N1CCC(n2cc(Nc3ncc(C(F)(F)F)c(NCCCN4CCCCC4=O)n3)c(CC)n2)CC1` [Example 52], 1 to 25 nM. With `Cc1nn(CCN2CCOCC2)cc1Nc1ncc(Cl)c(NCCCN2CCCC2=O)n1` [Example 163] the figure was greater than 500 nM; with `CCc1nn(C2CCN(CC)CC2)cc1Nc1ncc(C(F)(F)F)c(NCCCN2CCCCC2=O)n1` [Example 42], 25 to 100 nM. With `Cc1nn(C2CCN(C(C)C)CC2)cc1Nc1ncc(C(F)(F)F)c(NCCCN2CCCCCC2=O)n1` [Example 85] the figure was 1 to 25 nM; with `CN1CCC(n2cc(Nc3ncc(C(F)(F)F)c(NCCCN4CCN(C)C4=O)n3)cn2)CC1` [Example 151], 1 to 25 nM; with `Cc1nn([C@@H]2CCNC2)cc1Nc1ncc(Cl)c(NCCCN2CCCC2=O)n1` [Example 158], greater than 500 nM.

Consider `Cc1nn(CCCN(C)C)cc1Nc1ncc(C(F)(F)F)c(NCCCN2CCCCC2=O)n1` [Example 35], for which the IC50 is 25 to 100 nM. Next, `Cc1nn(C2CCN(CC(C)C)CC2)cc1Nc1ncc(C(F)(F)F)c(NCCCN2CCCCCC2=O)n1` [Example 89]: 1 to 25 nM; `Cc1nn([C@H]2CCNC2)cc1Nc1ncc(C(F)(F)F)c(NCCCN2CCCCC2=O)n1` [Example 65]: 1 to 25 nM. `Cc1nn(C2CN(CC(C)C)C2)cc1Nc1ncc(C(F)(F)F)c(NCCCN2CCCC2=O)n1` [Example 128] gave an IC50 of 1 to 25 nM.

In turn, `Cc1nn(C2CCN(C3CCC3)CC2)cc1Nc1ncc(C(F)(F)F)c(NCCCN2CCCCCC2=O)n1` [Example 92] had an IC50 of 1 to 25 nM. Molecule `Cc1nn(CCCN2CCCCC2)cc1Nc1ncc(C(F)(F)F)c(NCCCN2CCCCC2=O)n1` [Example 28] gave an IC50 of 25 to 100 nM. Next, `CCN1CCC(n2cc(Nc3ncc(C(F)(F)F)c(NCCCN4CCCCC4=O)n3)c(C)n2)CC1` [Example 37]: 1 to 25 nM.

For orientation: IC50 means the concentration that inhibits the measured activity by half.
